The results in this text go back to US20250082649A1, “ALTERATION OF NUTRIENT PREFERENCES VIA MODULATION OF NUTRIENT RECEPTORS IN THE GUT” (The Trustees of Columbia University in the City of New York, priority 2022, published 2025).

Entries after “also recorded” stand apart in the source; their conditions may differ.

The subject of one assay is mice. Description: Brief-access (30 min) two-bottle tests, immediate attraction. The settings on record: 30 min two-bottle test, 3 mM AceK or 1.5% Intralipid, n=9 mice. Format: in vivo. Here is the method: Two-bottle preference assays. No behavioral experiments, including the short-term assays for taste responses, or the 48 h tests examining the development of sugar or fat preference used water-restricted or food-deprived mice. Mice were given ad libitum access to food and water for several days prior to the behavioral tests; any food or water restriction would severely affect the mice's behavior in preference or taste responses. Development of fat preference: mice were first tested for their initial preference between 1.5% Intralipid and 3 mM AceK (pre testing) by completing 100 drinking trials. Each trial was initiated by the first lick and lasted for 5 s; the drinking ports then re-opened after 30 s of inter-trial interval. Next, mice were exposed to 500 licks to both 1.5% Intralipid and 3 mM AceK; this was repeated twice. […] The pre and post-preference indexes were calculated by dividing the number of licks to fat by the total lick count during the first 2-4 h (100 trials) of baseline measurements (pre) and during the last 2-4 h (100 trials) of the behavioural session (post), respectively. […] The ‘pre’ preference index was calculated as the number of licks to fat divided by the total lick count during the first 4 h; the “post” preference index was calculated as the number of licks to fat divided by the total lick count during the last 4 h of the session. […]

The test system of another assay is vagal sensory neurons. Description: Vagal calcium imaging (nodose ganglion, GCaMP6s) with intestinal delivery of stimuli. Type of assay: in vivo, mice. The settings on record: for responding vagal neurons of imaged neurons: intestinal delivery, 10% fatty acid or pre-digested Intralipid, FIG. 10E-10I stimuli interleaved with 10% LA (10 s). Here is the method: To directly examine and monitor the fat responses of vagal sensory neurons, functional imaging of the nodose ganglion (which contains the cell bodies of vagal neurons) was performed. The genetically encoded activity sensor GCaMP6s was targeted to vagal sensory neurons using Vglut2-Cre animals, and a one-photon calcium imaging set-up was used coupled to synchronous intestinal delivery of fat, sugar and other stimuli to record neuronal responses in vivo, with real time kinetics (FIG. 2E, FIG. 10A, FIG. 10B, FIG. 10C). To administer the stimuli, a catheter was placed into the duodenal bulb, and an exit port was created by transecting the intestine 10 cm distally. During each imaging session, the intestine was exposed to a pre-stimulus application of PBS, a 10 s or 60 s exposure to the test stimulus, and a 200 s post-stimulus wash; this regime was repeated at least 3 times for each stimulus.
Fat, sugar and amino acid intestinal stimulation. Stimuli for nodose imaging experiments were as follows. Sugar: 500 mM glucose. Amino acids: a mix consisting of 50 mM methionine, 50 mM serine, 50 mM alanine, 50 mM glutamine and 50 mM cysteine dissolved in PBS. Fat: 10% linoleic acid, 10% linolenic acid, 10% hexanoic acid, 10% DHA, 10% oleic acid, diluted in PBS containing 0.1% xanthan gum and 0.05% Tween 80, and vortexed for a minimum of 10 min. Vehicle control: 0.1% xanthan gum and 0.05% Tween 80. For sugar and fat intestinal stimulation in imaging experiments, a 10 s window of stimulation was used; for amino acids, a 60 s stimulus was used, as lower concentrations of each in the mix of several amino acids was used (see above). Note that if using Intralipid mix (a 20% soy bean oil emulsion, Santa Cruz) for nodose imaging experiments (rather than consumption where it would be naturally digested and broken down into short, medium and long chain fatty acids), the material was pre-digested with lipases (mimicking its natural course of action upon ingestion). […] Intralipid was incubated with 4 mg/ml lipase (sigma) in PBS plus 10 mM CaCl2 for a minimum of 5 h at 37° C.
Vagal calcium imaging. Each mouse was anaesthetized with ketamine (100 mg/kg) and xylazine (10 mg/kg). […] For glutamate receptor blocker experiments, a mixture of metabotropic glutamate receptor antagonist AP3 (2 mg/kg) and ionotropic glutamate receptor antagonist kynurenic acid (300 μg/kg) was used. CCKAR and glutamate receptor blockers were delivered both into the intestines and abdominal cavity; after a 5 min incubation period, the imaging session was started.
Calcium imaging data collection and analysis. […] Data was acquired at 5 Hz. A single field of view was chosen for recording and analysis from each ganglion. Calcium imaging data collected at 5 Hz was down-sampled by a factor of 2, and the images were stabilized using the NORMCorre algorithm. Motion-corrected movies were then manually segmented in ImageJ using the Cell Magic Wand plugin. Neuropil fluorescence was subtracted from each region of interest with the FISSA toolbox, and neural activity was denoised using the OASIS deconvolution algorithm. […] For experiments using blockers, two repeat trials per stimuli were used to accommodate the expanded time scale of the session (that is, before and after), and a neuron was considered a responder if it responded in both trials. The two-trial average area under curve for each stimulus was used to quantify the before and after responses (FIG. 12D, FIG. 12E). Imaging data is presented as heat maps of z-score-normalized responses.

In a further assay the test system is cNST neurons. Description: Fibre photometry of cNST activity in response to intestinal delivery of stimuli. Type of assay: in vivo, mice. The settings on record: Penk-Cre animals.
A further assay deals with cNST. Briefly: Fos stimulation and histology, cNST. Format: in vivo, mice. The settings on record: 90 min exposure; 20% Intralipid, 10% linoleic acid or 10% oleic acid vs xanthan gum / mineral oil controls. An excerpt: Separate cohorts of animals were exposed to 3 different lipid stimuli (Intralipid, linoleic acid, or oleic acid) and to fat-free textural controls (xanthan gum or mineral oil). […] The cNST is a nexus of interoceptive signals conveying information from the body to the brain via the gut-brain axis. If the fat-activated brain cNST neurons are receiving signals originating in the gut, then direct delivery of fat stimuli into the gut should also induce activation of the cNST. An intragastric catheter was implanted in the stomach and infused either a fat solution or a vehicle control. Intragastric infusion of fat, but not of a vehicle, is sufficient to activate the cNST as robustly as oral ingestion (FIG. 1E, FIG. 1F, FIG. 8J, FIG. 8K, FIG. 8L).
Fos stimulation and histology. Stimuli consisted of 20% Intralipid (sc215182, Santa Cruz Biotechnology), 10% linoleic acid, 10% oleic acid, 0.3% xanthan gum or 10% mineral oil. Stimuli were emulsified by dilution into milliQ water containing 0.1% xanthan gum and 0.05% Tween 80, and vortexed for a minimum of 10 min. […] Quantification of Fos labelling was carried out by recording the number of positive neurons in an equivalent 200×200 um area of the cNST (bregma—7.5 mm) and area postrema. […]

The test system of another assay is vagal neurons. Description: CCK application in vagal calcium imaging. Type of assay: in vivo, mice. The settings on record: 1 μg/ml CCK, 60 s. An excerpt:
Calcium imaging data collection and analysis. […] Data was acquired at 5 Hz.

Procedure for cNST neurons: Fibre photometry. Vglut2-cre; Ai96 mice were placed in a stereotaxic frame and implanted with a 400 μm core, 0.48 NA optical fibre (Doric Lenses) 50-100 μm over the left cNST. […] To quantify the effects of vagotomy, the ratio of stimulus-related peak amplitude of the normalized trace was calculated (within 120 s of stimulus onset) prior vagotomy versus after vagotomy. […] Stimulus delivery was performed via a series of peristaltic pumps (BioChem Fluidics) operated via custom Matlab software and Arduino microcontroller. Stimuli and washes were delivered through separate lines that converged on a common perfusion manifold (Warner Instruments) connected to the duodenal catheter. Trials consisted of a 60-s baseline (PBS 200 μl/min), a 30 s stimulus (200 μl/min), and a 3-min washout period (150 s at 600 μl/min, and 30 s at 150 μl/min). Stimuli were each presented three times in an interleaved fashion.

Regarding `CC1=CC(=O)[N-]S(=O)(=O)O1.[K+]` [AceK, acesulfame K], the “immediate attraction versus water” value in the assay with mice is reported as “strong innate attraction”.
As to `CC/C=C\C/C=C\C/C=C\CCCCCCCC(=O)O` [alpha-linolenic acid], in the assay with vagal sensory neurons, the “responding vagal neurons of imaged neurons” value was 49/322.
As for `CN1C(=O)[C@@H](NC(=O)c2cc3ccccc3[nH]2)N=C(c2ccccc2)c2ccccc21` [devazepide, Devazepide], in the assay on cNST neurons (photometric recordings, n=5), the “cNST responses to intestinal fat stimulation after removing CCK-dependent signaling” value was about 50% and the “cNST sugar-evoked responses after inhibiting signaling via the CCK dependent pathway” value is given as “completely abolished”.
On to `CC/C=C\C/C=C\C/C=C\C/C=C\C/C=C\C/C=C\CCC(=O)O` [docosahexaenoic acid], for which the “responding vagal neurons of imaged neurons” value in the assay on vagal sensory neurons is 51/348.
With `CCCCCC(=O)O` [hexanoic acid], the “responding vagal neurons of imaged neurons” value in the assay with vagal sensory neurons is reported as 52/495.
In the case of `CCCCC/C=C\C/C=C\CCCCCCCC(=O)O` [linoleic acid], the “Fos labelling in cNST upon ingestion” value in the assay on cNST is “strong Fos labelling; also recorded: strong bilateral activation”. The “cNST neural responses to intestinal delivery” value with cNST neurons (10% linoleic acid or 500 mM glucose, n=4 mice) is “robust, time-locked responses”. Also, the “neurons that responded only to fat (fat-only responders)” value in the assay with vagal sensory neurons (10% linoleic acid and 500 mM glucose, 10 s, 1813 neurons imaged, 22 vagal ganglia) is 153. Also, in the assay on vagal sensory neurons (Trpa1-Cre, Ai162, 163 imaged neurons from 5 ganglia, 10% linoleic acid), the “TRPA1-expressing vagal neurons responding to fat” value was about 24%. Moreover, the “subset of vagal neurons with evoked responses, % of GCaMP-expressing Vglut2 neurons” value with vagal sensory neurons (intestinal infusion, Vglut2-Cre animals) is recorded as 17%. Further, in the assay with vagal sensory neurons (vs vehicle control (0.1% xanthan gum plus 0.05% Tween 80)), the “vagal neuron responses to intestinal delivery” value is “strong responses; also recorded: robust responses”.
With `CCCCCCCC/C=C\CCCCCCCC(=O)O` [oleic acid], the “Fos labelling in cNST upon ingestion” value with cNST is recorded as “strong Fos labelling; also recorded: strong bilateral activation”. Further, in the assay on vagal sensory neurons, the “responding vagal neurons of imaged neurons” value is given as 39/418.
For the compound Cholecystokinin [CCK], in the assay with vagal neurons, the “activation of fat-only vagal neurons” value is on record as “not the fat-only vagal neurons” and the “activation of sugar/nutrient responding vagal neurons” value is “all sugar/nutrient responders were activated; also recorded: also responded to CCK”. Also, in the assay with vagal neurons (listed as CCK peptide), the “activation of sugar/nutrient responding vagal neurons” value is “strongly activated”.
